These results are taken from patent US20070010671A1, “Novel quinazoline derivatives and methods of treatment related to the use thereof” (priority 2003, published 2007).

Structures are written as SMILES.

In one assay the target is MCH receptor (Homo sapiens, UniProt Q99705). In words: High throughput functional screening FLIPR/FDSS6000: inhibition of MCH-evoked intracellular Ca2+ changes. The class given is cell-based. The following applies: class by percent of control at 10^-7 M or IC50. The method, boiled down: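 Antagonism is measured as inhibition of the intracellular calcium rise triggered by 50 nM MCH in cells bearing a constitutively active, non-endogenous form of the receptor. Cells are dye-loaded with Fluo4-AM and exposed to compound for 3 min at 37° C before agonist addition.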
In the case of `Cc1ccc(F)cc1NC(=O)NC[C@H]1CC[C@@H](Nc2nc(N(C)C)c3ccccc3n2)CC1` [compound 567, N-[(cis-4-{[4-(dimethylamino)quinazolin-2-yl]amino}cyclohexyl)methyl]-N′-(5-fluoro-2-methylphenyl)urea], the class was 2 (Class 2: The value of percent of control at 10^−7 M was from 40% to 60% or the value of IC50 was from 50 nM to 200 nM.). The same measure, in the same setting: next, `CN(C)c1nc(N[C@H]2CC[C@@H](CNC(=O)NCc3ccccc3)CC2)nc2ccccc12` [compound 410]: 3 (Class 3: The value of percent of control at 10^−7 M was more than 60% or the value of IC50 was more than 200 nM.).

Consider `CN(C)c1nc(N[C@H]2CC[C@@H](CNC(=O)Nc3ccccc3)CC2)nc2ccccc12` [compound 452, N-[(cis-4-{[4-(dimethylamino)quinazolin-2-yl]amino}cyclohexyl)methyl]-N′-phenylurea], for which the class is listed as 1 (Class 1: The value of percent of control at 10^−7 M was less than 40% or the value of IC50 was less than 50 nM.). Same read-out and setting: next, `CC(C)CNC(=S)NC[C@H]1CC[C@@H](Nc2nc(N(C)C)c3ccccc3n2)CC1` [compound 602, N-[(cis-4-{[4-(dimethylamino)quinazolin-2-yl]amino}cyclohexyl)methyl]-N′-isobutylthiourea]: 2 (Class 2: The value of percent of control at 10^−7 M was from 40% to 60% or the value of IC50 was from 50 nM to 200 nM.); `CN(C)c1nc(N[C@H]2CC[C@@H](CNC(=O)Nc3ccccc3Cl)CC2)nc2ccccc12` [compound 419, N-(2-chlorophenyl)-N′-[(cis-4-{[4-(dimethylamino)quinazolin-2-yl]amino}cyclohexyl)methyl]urea]: 1 (Class 1: The value of percent of control at 10^−7 M was less than 40% or the value of IC50 was less than 50 nM.); `CN(C)c1nc(N[C@H]2CC[C@@H](NC(=S)Nc3ccc4c(c3)CCC4)CC2)nc2ccccc12` [compound 325, N-(2,3-dihydro-1H-inden-5-yl)-N′-(cis-4-{[4-(dimethylamino)quinazolin-2-yl]amino}cyclohexyl)thiourea]: 2 (Class 2: The value of percent of control at 10^−7 M was from 40% to 60% or the value of IC50 was from 50 nM to 200 nM.).

With `CN(C)c1nc(N[C@H]2CC[C@@H](CNC(=O)NCc3ccc(Cl)cc3Cl)CC2)nc2ccccc12` [compound 478, N-(2,4-dichlorobenzyl)-N′-[(cis-4-{[4-(dimethylamino)quinazolin-2-yl]amino}cyclohexyl)methyl]urea], the class was 2 (Class 2: The value of percent of control at 10^−7 M was from 40% to 60% or the value of IC50 was from 50 nM to 200 nM.). Regarding `CN(C)c1nc(N[C@H]2CC[C@@H](CNC(=O)Nc3cc(C(F)(F)F)ccc3F)CC2)nc2ccccc12` [compound 496], the class is recorded as 3 (Class 3: The value of percent of control at 10^−7 M was more than 60% or the value of IC50 was more than 200 nM.). For the compound `CN(C)c1nc(N[C@H]2CC[C@@H](NC(=S)Nc3cc(C(F)(F)F)ccc3Cl)CC2)nc2ccccc12` [compound 253], the class was 3 (Class 3: The value of percent of control at 10^−7 M was more than 60% or the value of IC50 was more than 200 nM.). The same measure, in the same setting: the result for `Cc1cc(NC(=O)NC[C@H]2CC[C@@H](Nc3nc(N(C)C)c4ccccc4n3)CC2)c(C(F)(F)F)o1` [compound 767, N-[(cis-4-{[4-(dimethylamino)quinazolin-2-yl]amino}cyclohexyl)methyl]-N′-[5-methyl-2-(trifluoromethyl)-3-furyl]urea] reads 1 (Class 1: The value of percent of control at 10^−7 M was less than 40% or the value of IC50 was less than 50 nM.); that for `CN(C)c1nc(N[C@H]2CC[C@@H](CNC(=O)Nc3ccccc3C(F)(F)F)CC2)nc2ccccc12` [compound 455, N-[(cis-4-{[4-(dimethylamino)quinazolin-2-yl]amino}cyclohexyl)methyl]-N′-[2-(trifluoromethyl)phenyl]urea], 1 (Class 1: The value of percent of control at 10^−7 M was less than 40% or the value of IC50 was less than 50 nM.); that for `CN(C)c1nc(N[C@H]2CC[C@@H](CNC(=O)Nc3ccc(Br)cc3)CC2)nc2ccccc12` [compound 413], 3 (Class 3: The value of percent of control at 10^−7 M was more than 60% or the value of IC50 was more than 200 nM.). Still for that read-out and setting: next, `CN(C)c1nc(N[C@H]2CC[C@@H](NC(=S)Nc3ccc4c(c3)OCO4)CC2)nc2ccccc12` [compound 370, N-1,3-benzodioxol-5-yl-N′-(cis-4-{[4-(dimethylamino)quinazolin-2-yl]amino}cyclohexyl)thiourea]: 1 (Class 1: The value of percent of control at 10^−7 M was less than 40% or the value of IC50 was less than 50 nM.); `CN(C)c1nc(N[C@H]2CC[C@@H](CNC(=O)Nc3ccc(Oc4ccccc4)cc3)CC2)nc2ccccc12` [compound 453]: 3 (Class 3: The value of percent of control at 10^−7 M was more than 60% or the value of IC50 was more than 200 nM.); `CN(C)c1nc(N[C@H]2CC[C@@H](NC(=S)Nc3ccc(OC(F)(F)F)cc3)CC2)nc2ccccc12` [compound 230]: 3 (Class 3: The value of percent of control at 10^−7 M was more than 60% or the value of IC50 was more than 200 nM.).

For the compound `COc1ccc(NC(=S)NC[C@H]2CC[C@@H](Nc3nc(N(C)C)c4ccccc4n3)CC2)c(OC)c1` [compound 590], the class is given as 3 (Class 3: The value of percent of control at 10^−7 M was more than 60% or the value of IC50 was more than 200 nM.).

Staying with this assay, now noted: class by percent of control at 10^-7 M or by IC50; read-out: class.
For the compound `CN(C)c1nc(N[C@H]2CC[C@@H](NC(=O)Nc3ccc(F)c([N+](=O)[O-])c3)CC2)nc2ccccc12` [compound 35], the IC50 was greater than 200 nM. Take `CN(C)c1nc(N[C@H]2CC[C@@H](NC(=O)NCc3ccc(F)cc3)CC2)nc2ccccc12` [compound 824, N-(cis-4-{[4-(dimethylamino)quinazolin-2-yl]amino}cyclohexyl)-N′-(4-fluorobenzyl)urea]: the IC50 was less than 50 nM. With `CN(C)c1nc(N[C@H]2CC[C@@H](NC(=O)Nc3cc(F)cc(F)c3)CC2)nc2ccccc12` [compound 125, N-(3,5-difluorophenyl)-N′-(cis-4-{[4-(dimethylamino)quinazolin-2-yl]amino}cyclohexyl)urea], the IC50 was in the range of 50 to 200 nM. On the same count and under the same terms, next, `CN(C)c1nc(N[C@H]2CC[C@@H](CNC(=S)Nc3ccc(Oc4ccccc4)nc3)CC2)nc2ccccc12` [compound 821]: greater than 200 nM.

Still in this assay, the particulars now being: class by percent of control at 10^−7 M or by IC50; read-out: class.
Take `COc1ccccc1OCC(=O)N[C@H]1CC[C@@H](Nc2nc(N(C)C)c3ccccc3n2)CC1` [Example 1082, N-(cis-4-{[4-(dimethylamino)quinazolin-2-yl]amino}cyclohexyl)-2-(2-methoxyphenoxy)acetamide]: the IC50 is 50 to 200 nM. Same read-out and setting: the result for `CN(C)c1nc(N[C@H]2CC[C@@H](NC(=O)[C@H](O)c3cccc(Cl)c3)CC2)nc2ccccc12` [Example 1111, (2R)-2-(3-chlorophenyl)-N-(cis-4-{[4-(dimethylamino)-quinazolin-2-yl]amino}cyclohexyl)-2-hydroxyacetamide] reads less than 50 nM.

As to `COc1cccc(NC(=O)NC[C@H]2CC[C@@H](Nc3nc(N(C)C)c4ccccc4n3)CC2)c1` [Example 1017, N-[(cis-4-{[4-(dimethylamino)quinazolin-2-yl]amino}cyclohexyl)methyl]-N′-(3-methoxyphenyl)urea], the IC50 lay within 50 to 200 nM.
